{"source": "paper PMC10657792", "about": "“Downstream Allosteric Modulation of NMDA Receptors by 3-Benzazepine Derivatives” (Molecular Neurobiology, 2023)", "key": {"GluN2B subunits": {"test_system": "GluN2B subunits", "conditions": "cited from earlier work"}, "GluN2B": {"test_system": "GluN2B", "design": "method as in PMID 35710735", "conditions": "PET, non-human primates; cited from earlier work"}, "GluN1a wt/ GluN2B F114A": {"molecular_target": "GluN1a wt/ GluN2B F114A (Rattus norvegicus, UniProt P35439+Q00960, F114A)", "sequence (Q00960 27-1482 F114A, other chains not shown)": "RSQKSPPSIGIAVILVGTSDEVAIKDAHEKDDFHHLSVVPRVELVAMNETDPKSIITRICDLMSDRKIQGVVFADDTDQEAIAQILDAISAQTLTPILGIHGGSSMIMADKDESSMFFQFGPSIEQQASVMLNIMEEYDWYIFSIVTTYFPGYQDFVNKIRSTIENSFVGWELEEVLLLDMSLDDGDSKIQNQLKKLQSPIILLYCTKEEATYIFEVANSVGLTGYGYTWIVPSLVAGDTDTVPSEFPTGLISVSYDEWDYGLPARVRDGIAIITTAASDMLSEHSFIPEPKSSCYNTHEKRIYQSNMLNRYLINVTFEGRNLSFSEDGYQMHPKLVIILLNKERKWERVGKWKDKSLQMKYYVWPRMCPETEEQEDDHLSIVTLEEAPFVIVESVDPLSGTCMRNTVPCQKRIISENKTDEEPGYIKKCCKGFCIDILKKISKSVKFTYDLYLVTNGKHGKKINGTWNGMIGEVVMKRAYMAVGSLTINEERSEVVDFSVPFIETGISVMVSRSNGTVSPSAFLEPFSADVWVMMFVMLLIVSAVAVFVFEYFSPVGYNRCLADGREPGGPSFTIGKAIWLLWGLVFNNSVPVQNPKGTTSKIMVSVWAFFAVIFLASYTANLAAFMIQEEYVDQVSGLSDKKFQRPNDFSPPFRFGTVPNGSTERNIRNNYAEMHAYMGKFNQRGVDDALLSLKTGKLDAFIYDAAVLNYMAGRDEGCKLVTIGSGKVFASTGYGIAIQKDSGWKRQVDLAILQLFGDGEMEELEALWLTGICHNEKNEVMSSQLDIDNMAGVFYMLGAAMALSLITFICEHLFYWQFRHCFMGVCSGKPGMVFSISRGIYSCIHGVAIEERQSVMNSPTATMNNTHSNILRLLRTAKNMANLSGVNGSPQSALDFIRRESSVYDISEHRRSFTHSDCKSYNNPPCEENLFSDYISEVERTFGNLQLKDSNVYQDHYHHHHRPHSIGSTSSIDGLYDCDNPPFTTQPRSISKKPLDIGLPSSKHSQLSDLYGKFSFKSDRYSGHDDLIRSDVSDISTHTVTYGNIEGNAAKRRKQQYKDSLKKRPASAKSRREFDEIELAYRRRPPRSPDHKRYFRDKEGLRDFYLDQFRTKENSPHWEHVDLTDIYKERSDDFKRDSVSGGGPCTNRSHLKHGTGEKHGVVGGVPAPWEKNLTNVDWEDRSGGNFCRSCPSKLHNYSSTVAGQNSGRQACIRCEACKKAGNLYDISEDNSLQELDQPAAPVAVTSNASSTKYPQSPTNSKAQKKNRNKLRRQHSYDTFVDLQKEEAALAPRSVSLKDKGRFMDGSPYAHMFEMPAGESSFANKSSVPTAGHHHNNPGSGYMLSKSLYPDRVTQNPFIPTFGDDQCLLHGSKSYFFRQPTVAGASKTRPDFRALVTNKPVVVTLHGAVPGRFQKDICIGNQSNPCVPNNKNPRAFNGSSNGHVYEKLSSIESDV", "test": "TEVC recording in X. laevis oocytes, GluN2B mutant screening", "assay_type": "cell-based", "conditions": "GluN1-1a/F114A, individual oocytes"}, "GluN1a wt/ GluN2B E236A": {"molecular_target": "GluN1a wt/ GluN2B E236A (Rattus norvegicus, UniProt P35439+Q00960, E236A)", "sequence (Q00960 27-1482 E236A, other chains not shown)": "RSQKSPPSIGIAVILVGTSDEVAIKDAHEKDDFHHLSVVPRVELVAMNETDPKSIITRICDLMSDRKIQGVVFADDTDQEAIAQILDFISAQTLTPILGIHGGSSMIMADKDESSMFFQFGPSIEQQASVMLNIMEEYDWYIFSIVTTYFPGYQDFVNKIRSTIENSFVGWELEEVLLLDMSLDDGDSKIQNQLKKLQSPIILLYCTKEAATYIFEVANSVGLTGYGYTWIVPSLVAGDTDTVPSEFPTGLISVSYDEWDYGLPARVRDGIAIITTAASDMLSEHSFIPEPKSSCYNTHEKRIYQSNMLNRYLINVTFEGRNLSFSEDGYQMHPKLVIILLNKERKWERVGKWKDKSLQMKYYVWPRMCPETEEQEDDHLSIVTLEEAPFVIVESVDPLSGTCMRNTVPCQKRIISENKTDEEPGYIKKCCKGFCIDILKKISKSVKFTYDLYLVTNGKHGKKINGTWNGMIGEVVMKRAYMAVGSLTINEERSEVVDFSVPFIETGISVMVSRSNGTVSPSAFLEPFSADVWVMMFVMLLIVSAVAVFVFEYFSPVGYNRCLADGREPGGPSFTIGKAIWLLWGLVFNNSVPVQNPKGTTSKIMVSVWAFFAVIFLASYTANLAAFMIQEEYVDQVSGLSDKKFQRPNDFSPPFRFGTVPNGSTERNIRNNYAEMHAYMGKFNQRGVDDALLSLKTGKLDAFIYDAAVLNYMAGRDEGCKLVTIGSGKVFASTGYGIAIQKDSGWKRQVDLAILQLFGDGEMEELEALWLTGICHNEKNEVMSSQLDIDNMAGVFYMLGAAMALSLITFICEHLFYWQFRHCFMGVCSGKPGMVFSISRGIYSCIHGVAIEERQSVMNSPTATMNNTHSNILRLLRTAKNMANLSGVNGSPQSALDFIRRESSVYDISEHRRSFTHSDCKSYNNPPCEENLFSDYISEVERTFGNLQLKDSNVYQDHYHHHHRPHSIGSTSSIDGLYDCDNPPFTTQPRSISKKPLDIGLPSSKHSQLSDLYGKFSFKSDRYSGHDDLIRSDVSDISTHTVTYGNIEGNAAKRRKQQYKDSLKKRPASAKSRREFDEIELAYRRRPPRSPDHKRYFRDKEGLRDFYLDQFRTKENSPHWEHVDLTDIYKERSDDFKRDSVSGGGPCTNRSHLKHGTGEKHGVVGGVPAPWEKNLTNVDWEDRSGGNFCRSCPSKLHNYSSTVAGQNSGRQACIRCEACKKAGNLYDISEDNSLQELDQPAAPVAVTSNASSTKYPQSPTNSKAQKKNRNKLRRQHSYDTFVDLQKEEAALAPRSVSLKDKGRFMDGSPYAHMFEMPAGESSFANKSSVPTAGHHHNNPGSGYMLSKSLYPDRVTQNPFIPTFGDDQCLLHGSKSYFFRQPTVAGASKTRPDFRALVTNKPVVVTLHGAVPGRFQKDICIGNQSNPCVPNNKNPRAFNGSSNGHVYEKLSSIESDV", "test": "TEVC recording in X. laevis oocytes, GluN2B mutant screening", "assay_type": "cell-based", "conditions": "GluN1-1a/E236A, individual oocytes"}, "GluN1a wt/ GluN2B F176A": {"molecular_target": "GluN1a wt/ GluN2B F176A (Rattus norvegicus, UniProt P35439+Q00960, F176A)", "test": "Ligand binding assay with [3H]ifenprodil, membranes of transfected HEK cells", "conditions": "5 nM radioligand, non-specific binding with 10 µM unlabeled ifenprodil, 37 °C; single replicate", "method": "(§1) One day prior to transfection, human embryonic kidney (HEK) cells were reseeded into T75 flasks, aiming for a confluency of 70% after 24 h. HEK cells were then transiently co-transfected with the cDNAs (GluN1-1a/ eGFP, GluN1-1b/eGFP, GluN2B/pDsRed2-N1, GluN2B F176A/pDsRed2-N1, and GluN2B F194A/pDsRed2-N1) encoding the NMDAR subunits using Lipofectamine 3000 (Thermo Fisher Scientific, Germany) according to the manufacturer’s instructions. Approximately 60 h after transfection, the cells were resuspended in Dulbecco’s phosphate-buffered saline (PBS), and the positively double transfected cells were sorted using fluorescence-activated cell sorting (FACS). The membrane preparation, the protein yield determination, and ligand binding assay were performed as previously described. Briefly, the affinity for NMDAR was evaluated using a receptor binding assay, in which racemic […] (60 Ci/mmol; BIOTREND, Cologne, Germany), served as radioligand. The membrane fragments of NMDAR expressing HEK cells were incubated with 5 nM [^3H]ifenprodil and TRIS/EDTA-buffer (5 mM TRIS/1 mM EDTA, pH 7.5) at 37 °C. To evaluate the unspecific binding, 10 µM unlabeled ifenprodil was used."}, "GluN1b wt/ GluN2B F194A": {"molecular_target": "GluN1b wt/ GluN2B F194A (Rattus norvegicus, UniProt P35439+Q00960, F194A)", "test": "Ligand binding assay with [3H]ifenprodil, membranes of transfected HEK cells", "conditions": "5 nM radioligand, non-specific binding with 10 µM unlabeled ifenprodil, 37 °C; single replicate", "method": "as §1"}, "GluN1a wt/ GluN2B F194A": {"molecular_target": "GluN1a wt/ GluN2B F194A (Rattus norvegicus, UniProt P35439+Q00960, F194A)", "test": "Ligand binding assay with [3H]ifenprodil, membranes of transfected HEK cells", "conditions": "5 nM radioligand, non-specific binding with 10 µM unlabeled ifenprodil, 37 °C; single replicate", "method": "as §1"}, "GluN1b wt/ GluN2B wt": {"molecular_target": "GluN1b wt/ GluN2B wt (Rattus norvegicus, UniProt P35439+Q00960)", "test": "Ligand binding assay with [3H]ifenprodil, membranes of transfected HEK cells", "conditions": "5 nM radioligand, non-specific binding with 10 µM unlabeled ifenprodil, 37 °C; single replicate", "method": "as §1"}, "GluN1a wt/ GluN2B wt": {"molecular_target": "GluN1a wt/ GluN2B wt (Rattus norvegicus, UniProt P35439+Q00960)", "test": "Ligand binding assay with [3H]ifenprodil, membranes of transfected HEK cells", "conditions": "5 nM radioligand, non-specific binding with 10 µM unlabeled ifenprodil, 37 °C; single replicate", "method": "as §1"}, "GluN1b wt/ GluN2B F176A": {"molecular_target": "GluN1b wt/ GluN2B F176A (Rattus norvegicus, UniProt P35439+Q00960, F176A)", "sequence (Q00960 27-1482 F176A, other chains not shown)": "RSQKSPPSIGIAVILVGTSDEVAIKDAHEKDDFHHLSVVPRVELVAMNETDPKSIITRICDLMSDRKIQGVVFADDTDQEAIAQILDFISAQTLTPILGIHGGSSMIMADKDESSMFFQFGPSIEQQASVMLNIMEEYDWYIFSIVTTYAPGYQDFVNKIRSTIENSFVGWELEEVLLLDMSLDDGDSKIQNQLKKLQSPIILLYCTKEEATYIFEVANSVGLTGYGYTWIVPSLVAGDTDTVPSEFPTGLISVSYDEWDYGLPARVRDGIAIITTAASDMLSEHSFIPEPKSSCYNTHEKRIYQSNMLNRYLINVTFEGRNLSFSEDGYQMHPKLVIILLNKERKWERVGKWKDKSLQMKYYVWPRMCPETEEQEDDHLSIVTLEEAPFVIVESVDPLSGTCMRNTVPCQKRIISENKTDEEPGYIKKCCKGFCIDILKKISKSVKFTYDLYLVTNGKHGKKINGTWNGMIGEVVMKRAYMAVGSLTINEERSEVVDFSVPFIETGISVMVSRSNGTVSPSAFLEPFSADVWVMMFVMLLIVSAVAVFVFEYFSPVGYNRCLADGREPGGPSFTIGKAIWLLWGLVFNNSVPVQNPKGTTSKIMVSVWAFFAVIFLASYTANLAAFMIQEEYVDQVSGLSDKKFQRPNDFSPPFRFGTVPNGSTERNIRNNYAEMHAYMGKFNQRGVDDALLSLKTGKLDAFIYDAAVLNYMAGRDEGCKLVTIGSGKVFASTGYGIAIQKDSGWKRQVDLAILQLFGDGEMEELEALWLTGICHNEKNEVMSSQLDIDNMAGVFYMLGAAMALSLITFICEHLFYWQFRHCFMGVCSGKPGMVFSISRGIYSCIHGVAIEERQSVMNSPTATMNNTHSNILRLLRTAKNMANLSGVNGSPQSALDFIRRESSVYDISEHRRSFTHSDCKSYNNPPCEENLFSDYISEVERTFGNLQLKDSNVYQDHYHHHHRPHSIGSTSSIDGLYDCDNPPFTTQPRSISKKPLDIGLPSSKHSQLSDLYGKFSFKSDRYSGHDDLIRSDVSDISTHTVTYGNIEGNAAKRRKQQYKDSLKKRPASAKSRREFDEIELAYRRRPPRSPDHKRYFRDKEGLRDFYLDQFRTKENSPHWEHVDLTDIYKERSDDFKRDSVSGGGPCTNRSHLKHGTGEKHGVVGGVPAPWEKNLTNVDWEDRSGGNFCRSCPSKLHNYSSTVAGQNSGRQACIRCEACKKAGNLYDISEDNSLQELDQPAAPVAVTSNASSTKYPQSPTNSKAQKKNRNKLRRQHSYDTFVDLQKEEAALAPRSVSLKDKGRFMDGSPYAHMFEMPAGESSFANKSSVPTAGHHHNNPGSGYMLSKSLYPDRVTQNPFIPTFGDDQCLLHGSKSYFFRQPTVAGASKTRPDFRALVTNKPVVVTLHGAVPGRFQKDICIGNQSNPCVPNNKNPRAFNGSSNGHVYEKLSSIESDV", "test": "Ligand binding assay with [3H]ifenprodil, membranes of transfected HEK cells", "conditions": "5 nM radioligand, non-specific binding with 10 µM unlabeled ifenprodil, 37 °C; single replicate", "method": "as §1"}, "[1]": {"conditions": "compound concentration 0.1 μM, 0.1 µM"}, "[2]": {"conditions": "compound concentration 1 μM, 1 µM"}, "[3]": {"conditions": "compound concentration 10 μM, 10 µM"}, "[4]": {"conditions": "compound concentration 30 μM, 30 µM"}}, "note": "Where “and” joins values, the source holds several entries; their conditions need not be identical. Identical values can stand only once.", "data": [{"smiles": "Oc1ccc2c(c1)CCN(CCCCc1ccccc1[18F])CC2O", "note": "(racemic) [^18F-OF-NB1]", "values": [{"measurement": "blood–brain barrier permeability", "setting": "GluN2B subunits", "value": "high"}, {"measurement": "cerebellar accumulation", "setting": "GluN2B subunits; ex vivo biodistribution assays", "value": "high cerebellar accumulation"}]}, {"smiles": "Oc1ccc2c(c1)CCN(CCCCc1ccccc1[18F])C[C@@H]2O", "note": "[(R)-^18F-OF-NB1]", "values": [{"measurement": "affinity in vivo relative to the S-enantiomer", "setting": "GluN2B", "value": "four- to five-fold higher"}, {"measurement": "cingulate cortex accumulation", "setting": "GluN2B", "value": "high cingulate cortex accumulation"}, {"measurement": "uptake", "setting": "GluN2B", "value": "high uptake"}, {"measurement": "washout kinetics", "setting": "GluN2B", "value": "slow washout kinetics"}]}, {"smiles": "Oc1ccc2c(c1)CCN(CCCCc1ccccc1F)C[C@@H]2O", "note": "[OF-NB1 R]", "values": [{"measurement": "inhibition (%)", "setting": "GluN1a wt/ GluN2B F114A; [1]", "value": "0.07918% and 0.5179% and 0.211%"}, {"measurement": "inhibition (%)", "setting": "GluN1a wt/ GluN2B F114A; [2]", "value": "29.9386% and 5.971% and 22.998% and 16.9662%"}, {"measurement": "inhibition (%)", "setting": "GluN1a wt/ GluN2B F114A; [3]", "value": "58.532% and 61.9095% and 61.1489% and 64.1685%"}, {"measurement": "inhibition (%)", "setting": "GluN1a wt/ GluN2B F114A; [4]", "value": "87.8657% and 75.6136% and 78.22% and 87.6368%"}, {"measurement": "inhibition (%)", "setting": "GluN1a wt/ GluN2B E236A; compound concentration 0.001 μM, 0.001 µM", "value": "0.5349% and -0.3615% and 0.07864% and -0.02364% and -0.08675%"}, {"measurement": "inhibition (%)", "setting": "GluN1a wt/ GluN2B E236A; compound concentration 0.01 μM, 0.01 µM", "value": "2.174% and 5.182% and 1.1167% and -0.03546% and -0.1952%"}, {"measurement": "inhibition (%)", "setting": "GluN1a wt/ GluN2B E236A; [1]", "value": "22.83% and 11.3477% and 24.7562% and 0% and 0.08675%"}, {"measurement": "inhibition (%)", "setting": "GluN1a wt/ GluN2B E236A; [2]", "value": "62.3641% and 56.7584% and 57.7225% and 68.2307% and 52.0278%"}, {"measurement": "inhibition (%)", "setting": "GluN1a wt/ GluN2B E236A; [3]", "value": "74.0293% and 68.3069% and 74.5203% and 84.919% and 71.8716%"}, {"measurement": "inhibition (%)", "setting": "GluN1a wt/ GluN2B E236A; [4]", "value": "82.623% and 76.0795% and 83.6584% and 89.363% and 81.8261%"}]}, {"smiles": "CC(C(O)c1ccc(O)cc1)N1CCC(Cc2ccccc2)CC1", "note": "(stereo not shown) [[^3H]ifenprodil, ifenprodil]", "values": [{"measurement": "specific binding (cpm)", "setting": "GluN1a wt/ GluN2B F176A", "value": "4.5 cpm and 6.5 cpm"}, {"measurement": "specific binding (cpm)", "setting": "GluN1b wt/ GluN2B F194A", "value": "-0.5 cpm and -1.5 cpm"}, {"measurement": "specific binding (cpm)", "setting": "GluN1a wt/ GluN2B F194A", "value": "3.5 cpm and 2.5 cpm and -1.5 cpm"}, {"measurement": "specific binding (cpm)", "setting": "GluN1b wt/ GluN2B wt", "value": "4.5 cpm and 5.5 cpm and 11.5 cpm"}, {"measurement": "specific binding (cpm)", "setting": "GluN1a wt/ GluN2B wt", "value": "25.5 cpm and 9.5 cpm and 4.5 cpm"}, {"measurement": "specific binding (cpm)", "setting": "GluN1b wt/ GluN2B F176A", "value": "-1.5 cpm and -2.5 cpm and 0.5 cpm"}]}]}
